≈ marks a conversion by molar mass, not a printed value. Where two headings read alike, the source gives them in different places.
Tests used:
[1] = test system: MRSA ATCC33591; test: Neutropenic mouse thigh infection model; assay type: in vivo, S. aureus; set-up: Δ (thigh c.f.u. versus control): unit not given here; settings: for Thigh colony-forming units (c.f.u): neutropenic ICR mice, thighs at 24 h, X ± SD, n = 5
Protocol: Compound 1 was tested against MRSA ATCC33591 in a neutropenic mouse thigh infection model. Both female and male ICR mice were rendered neutropenic by cyclophosphamide (three consecutive doses of 150 mg per kg delivered before infection). At day 4, bacteria were resuspended in sterile saline, 0.1 ml inoculum (MRSA ATCC33591, 5.0×10^6 c.f.u/ml) was injected into the left thighs of mice. At 2 h post-infection, mice received treatment with Compound 1 at 0.63, 1.25, 2.5, 5.0 mg per kg administered in a single dose (10 ml/kg), intravenous injection (five mice per group). At 24 h post-infection, the left thighs were aseptically removed, weighed, homogenized, serially diluted and plated on trypticase soy agar for c.f.u titres.

[2] = test system: MRSA ATCC43300; test: Right-sided endocarditis rat model; assay type: in vivo, S. aureus; settings: for Log10 (CFU/g) of vegetation / Vegetation weight: Sprague-Dawley rats, 1 time/day for 2 days, 3 animals
Protocol: Male Sprague-Dawley rats (280-300 g) were intraperitoneally anesthetized with sodium pentobarbital solution (40 mg/kg). The rat chin area was treated with 75% alcohol. The right carotid artery was exposed through an anterior incision just slight right of midline above the calvicles. Polyethylene tubing was placed over 4-4.5 cm guided wire and passed within the right carotid artery into the left ventricle until resistance was met. Cardiac pulsations of the catheter indicated proper placement of the catheter tip at the apex of the heart. 0.5 ml inoculum of the overnight cultures (ATCC43300m 3.5×10^4 c.f.u./mL) was injected through a tail vein. After 24 hours of infection, the surviving rats were randomly divided into control group and treatment group. Compound 1 and daptomycin was administered via tail vein for 2 days (1 time/day). 24 h after the last administration, the animals were anesthetized and sacrificed. Vegetations and tissue samples were excised, weighed, homogenized, serially diluted and plated on trypticase soy agar for c.f.u titres.

[3] = test system: Clostridium difficile ATCC43255; test: in vitro anti-Clostridium difficile MIC, standard broth dilution method; assay type: cell-based
Protocol: (§1) Anti-Clostridium difficile activity of compound 1 was tested on two strains, C. difficile BAA-1382 and […], using the standard broth dilution method as described by the Clinical Laboratory Standard Institute.

[4] = test system: Clostridium difficile ATCCBAA-1382; test: as above; assay type: cell-based; settings: for MIC: Clostridium difficile ATCCBAA-1382; for anti-Clostridium difficile activity compared with vancomycin and daptomycin: in words, both strains of Table 3
Protocol: as §1

[5] = test system: MRSA ATCC 33591
[6] = 0.63 mg/kg single i.v. dose 2 h post-infection
[7] = 1.25 mg/kg single i.v. dose 2 h post-infection
[8] = 2.50 mg/kg single i.v. dose 2 h post-infection
[9] = 5.00 mg/kg single i.v. dose 2 h post-infection
[10] = Clostridium difficile ATCC43255

Structure (SMILES)	Δ (thigh c.f.u. versus control) ([1]; 0.63 mg/kg)	Δ (thigh c.f.u. versus control) ([1]; 1.25 mg/kg)	Δ (thigh c.f.u. versus control) ([1]; 2.50 mg/kg)	Δ (thigh c.f.u. versus control) ([1]; 5.00 mg/kg)	Thigh colony-forming units (c.f.u) [1, 6]	Thigh colony-forming units (c.f.u) [1, 7]	Thigh colony-forming units (c.f.u) [1, 8]	Thigh colony-forming units (c.f.u) [1, 9]	MIC [3, 10]	MIC [4]	anti-Clostridium difficile activity compared with vancomycin and daptomycin [4]	MIC [5]	also measured
CCCCCCCCCC(=O)N[C@@H](Cc1c[nH]c2ccccc12)C(=O)N[C@H](CC(N)=O)C(=O)N[C@@H](CC(=O)O)C(=O)N[C@@H]1C(=O)NCC(=O)N[C@@H](CCCN)C(=O)N[C@@H](CC(=O)O)C(=O)N[C@H](C)C(=O)N[C@@H](CC(=O)O)C(=O)NCC(=O)N[C@H](CO)C(=O)N[C@@H](C(C)CC(=O)O)C(=O)N[C@@H](CC(=O)c2ccccc2NC)C(=O)O[C@@H]1C (some centres unmarked) [Compound 1]	0.97	1.77	3.15	5.18	7.93 ± 0.85 log(CFU/thigh)	7.13 ± 0.25 log(CFU/thigh)	5.75 ± 0.35 log(CFU/thigh)	3.72 ± 0.35 log(CFU/thigh)	0.5 µg/mL (≈ 0.306 µM)	0.5 µg/mL (≈ 0.306 µM)	better activities than vancomycin and daptomycin	0.5 µg/mL (≈ 0.306 µM)	antibacterial activity compared with daptomycin ([1]; doses of 1.25 and 2.50 mg/kg, mice with thigh infected with S. aureus): significantly better antibacterial activity; Δ (Log10 CFU/g of vegetation versus control) ([2]; 20 mg/kg): 1.78; Log10 (CFU/g) of vegetation ([2]; 20 mg/kg via tail vein): 7.53 ± 1.08 Log10 (CFU/g); Vegetation weight ([2]; 20 mg/kg via tail vein): 0.012 ± 0.002 g; infection of S. aureus compared with the control groups and daptomycin ([2]; right-sided endocarditis rats): significantly decrease the infection of S. aureus
CCCCCc1ccc(/C(C)=C/C(=O)N[C@@H](Cc2c[nH]c3ccccc23)C(=O)N[C@H](CC(N)=O)C(=O)N[C@@H](CC(=O)O)C(=O)N[C@@H]2C(=O)NCC(=O)N[C@@H](CCCN)C(=O)N[C@@H](CC(=O)O)C(=O)N[C@H](C)C(=O)N[C@@H](CC(=O)O)C(=O)NCC(=O)N[C@H](CO)C(=O)N[C@@H]([C@H](C)CC(=O)O)C(=O)N[C@@H](CC(=O)c3ccccc3N)C(=O)O[C@@H]2C)cc1 [surotomycin, reference compound]	–	–	–	–	–	–	–	–	0.5 µg/mL (≈ 0.297 µM)	0.5 µg/mL (≈ 0.297 µM)	–	–	–
CN[C@H](CC(C)C)C(=O)N[C@H]1C(=O)N[C@@H](CC(N)=O)C(=O)N[C@H]2C(=O)N[C@H]3C(=O)N[C@H](C(=O)N[C@H](C(=O)O)c4cc(O)cc(O)c4-c4cc3ccc4O)[C@H](O)c3ccc(c(Cl)c3)Oc3cc2cc(c3O[C@@H]2O[C@H](CO)[C@@H](O)[C@H](O)[C@H]2O[C@H]2C[C@](C)(N)[C@H](O)[C@H](C)O2)Oc2ccc(cc2Cl)[C@H]1O [vancomycin, reference compound]	–	–	–	–	–	–	–	–	–	–	–	–	MIC ([3]; Clostridioides difficile, ATCC43255): 1 µg/mL (≈ 0.69 µM); MIC ([4]; Clostridioides difficile, ATCCBAA1382, read-out: MIC): 1 µg/mL (≈ 0.69 µM)
CCCCCc1ccc(/C(C)=C/C(=O)N[C@@H](Cc2c[nH]c3ccccc23)C(=O)N[C@H](CC(N)=O)C(=O)N[C@@H](CC(=O)O)C(=O)N[C@@H]2C(=O)NCC(=O)N[C@@H](CCCN)C(=O)N[C@@H](CC(=O)O)C(=O)N[C@H](C)C(=O)N[C@@H](CC(=O)O)C(=O)NCC(=O)N[C@H](CO)C(=O)N[C@@H](C(C)CC(=O)O)C(=O)N[C@@H](CC(=O)c3ccccc3NC)C(=O)O[C@@H]2C)cc1 (some centres unmarked) [Compound 7]	–	–	–	–	–	–	–	–	0.25 µg/mL (≈ 0.148 µM)	0.25 µg/mL (≈ 0.148 µM)	better activities than vancomycin and daptomycin	–	–
CCCCCCCCCC(=O)N[C@@H](Cc1c[nH]c2ccccc12)C(=O)N[C@H](CC(N)=O)C(=O)N[C@@H](CC(=O)O)C(=O)N[C@@H]1C(=O)NCC(=O)N[C@@H](CCCN)C(=O)N[C@@H](CC(=O)O)C(=O)N[C@H](C)C(=O)N[C@@H](CC(=O)O)C(=O)NCC(=O)N[C@H](CO)C(=O)N[C@@H]([C@H](C)CC(=O)O)C(=O)N[C@@H](CC(=O)c2ccccc2N)C(=O)O[C@@H]1C [daptomycin, reference compound]	0.88	1.09	1.97	4.97	8.02 ± 0.48 log(CFU/thigh)	7.81 ± 0.37 log(CFU/thigh)	6.93 ± 0.57 log(CFU/thigh)	3.93 ± 0.84 log(CFU/thigh)	1 µg/mL (≈ 0.617 µM)	1 µg/mL (≈ 0.617 µM)	–	1 µg/mL (≈ 0.617 µM)	Δ (Log10 CFU/g of vegetation versus control) ([2]; 40 mg/kg): 0.73; Log10 (CFU/g) of vegetation ([2]; 40 mg/kg via tail vein): 8.58 ± 0.55 Log10 (CFU/g); Vegetation weight ([2]; 40 mg/kg via tail vein): 0.007 ± 0.001 g
